Laboratory results reported in BigSolDB 2.1.

`O=C(Nc1ccncc1)c1cc(C(=O)Nc2ccncc2)cc(C(=O)Nc2ccncc2)c1` showed a solubility (mole fraction) (in 2-butanone, 283.15 K) of 0.00034, a solubility (mole fraction) (in 2-butanone, 293.15 K) of 0.000455 and a solubility (mole fraction) (in 2-butanone, 303.15 K) of 0.000519. It also gave a solubility (mole fraction) (in 2-butanone, 313.15 K) of 0.000577, a solubility (mole fraction) (in 2-butanone, 323.15 K) of 0.000675 and a solubility (mole fraction) (in acetone, 283.15 K) of 6.66e-06. For the same molecule, the solubility (mole fraction) (in acetone, 293.15 K) was 1.54e-05, the solubility (mole fraction) (in acetone, 303.15 K) was 1.86e-05 and the solubility (mole fraction) (in acetone, 313.15 K) was 2.5e-05. The solubility (mole fraction) (in acetone, 323.15 K) was 3.64e-05, the solubility (mole fraction) (in acetonitrile, 283.15 K) was 7.35e-05 and the solubility (mole fraction) (in acetonitrile, 293.15 K) was 9.53e-05. It also gave a solubility (mole fraction) (in acetonitrile, 303.15 K) of 0.00012, a solubility (mole fraction) (in acetonitrile, 313.15 K) of 0.000146 and a solubility (mole fraction) (in acetonitrile, 323.15 K) of 0.000183. It also gave a solubility (mole fraction) (in dichloromethane, 283.15 K) of 3.08e-05, a solubility (mole fraction) (in dichloromethane, 288.15 K) of 4.23e-05 and a solubility (mole fraction) (in dichloromethane, 293.15 K) of 5.41e-05. It also gave a solubility (mole fraction) (in dichloromethane, 298.15 K) of 6e-05, a solubility (mole fraction) (in dichloromethane, 303.15 K) of 6.77e-05 and a solubility (mole fraction) (in ethanol, 283.15 K) of 4.73e-05. For the same molecule, the solubility (mole fraction) (in ethanol, 293.15 K) was 6.07e-05, the solubility (mole fraction) (in ethanol, 303.15 K) was 7.59e-05 and the solubility (mole fraction) (in ethanol, 313.15 K) was 8.97e-05. It also gave a solubility (mole fraction) (in ethanol, 323.15 K) of 0.000104, a solubility (mole fraction) (in ethyl acetate, 283.15 K) of 0.000114 and a solubility (mole fraction) (in ethyl acetate, 293.15 K) of 0.000137. For the same molecule, the solubility (mole fraction) (in ethyl acetate, 303.15 K) was 0.000153, the solubility (mole fraction) (in ethyl acetate, 313.15 K) was 0.000178 and the solubility (mole fraction) (in ethyl acetate, 323.15 K) was 0.000196. It also gave a solubility (mole fraction) (in isopropanol, 283.15 K) of 0.000265, a solubility (mole fraction) (in isopropanol, 293.15 K) of 0.000302 and a solubility (mole fraction) (in isopropanol, 303.15 K) of 0.000355. For the same molecule, the solubility (mole fraction) (in isopropanol, 313.15 K) was 0.000405, the solubility (mole fraction) (in isopropanol, 323.15 K) was 0.000431 and the solubility (mole fraction) (in methanol, 283.15 K) was 5.21e-05. For the same molecule, the solubility (mole fraction) (in methanol, 293.15 K) was 6.76e-05, the solubility (mole fraction) (in methanol, 303.15 K) was 9.65e-05 and the solubility (mole fraction) (in methanol, 313.15 K) was 0.00013. It also gave a solubility (mole fraction) (in methanol, 323.15 K) of 0.000163, a solubility (mole fraction) (in n-butanol, 283.15 K) of 0.000156 and a solubility (mole fraction) (in n-butanol, 293.15 K) of 0.0002. For the same molecule, the solubility (mole fraction) (in n-butanol, 303.15 K) was 0.000235, the solubility (mole fraction) (in n-butanol, 313.15 K) was 0.000297 and the solubility (mole fraction) (in n-butanol, 323.15 K) was 0.000371. The solubility (mole fraction) (in n-hexane, 283.15 K) was 1.15e-05, the solubility (mole fraction) (in n-hexane, 293.15 K) was 2.45e-05 and the solubility (mole fraction) (in n-hexane, 303.15 K) was 4.03e-05. The solubility (mole fraction) (in n-hexane, 313.15 K) was 5.54e-05, the solubility (mole fraction) (in n-hexane, 323.15 K) was 6.95e-05 and the solubility (mole fraction) (in n-propanol, 283.15 K) was 0.000217. The solubility (mole fraction) (in n-propanol, 293.15 K) was 0.000244, the solubility (mole fraction) (in n-propanol, 303.15 K) was 0.000255 and the solubility (mole fraction) (in n-propanol, 313.15 K) was 0.000277. It also gave a solubility (mole fraction) (in n-propanol, 323.15 K) of 0.00029, a solubility (mole fraction) (in water, 283.15 K) of 4.65e-06 and a solubility (mole fraction) (in water, 293.15 K) of 5.71e-06. It also gave a solubility (mole fraction) (in water, 303.15 K) of 7.83e-06, a solubility (mole fraction) (in water, 313.15 K) of 8.34e-06 and a solubility (mole fraction) (in water, 323.15 K) of 1.6e-05.
